For the data set, the system named is rats. Nature of the data set: Open field activity test. It counts as in vivo, rat. The note with it: 20-fold higher doses relative to the FST tests (0.5 and 2.0 mg/kg i.p.), relative to vehicle-treated controls. The protocol: Behavioral testing was applied to a cohort of 12 rats. Following 7 days of daily i.p. treatment with i) vehicle (10% DMSO, 10% Tween 80, 80% saline; 2 mL/kg); or solubilized ii) the compound of Example 2 (0.025 mg/kg) or iii) the compound of Example 2 (0.1 mg/kg), rats were exposed to the modified forced swim test (FST). Briefly, FST exposure (15 min exposure, 25° C. tap water, 30 cm water depth) was performed 18-24 h after the previous i.p. treatment, after which rats were returned to their home cages to dry for approximately 2-3 h, then given daily i.p. treatment as before. FST testing was performed one day later (5 min test, 25° C. tap water, 30 cm water depth) with behaviors digitally recorded for subsequent analysis of immobility by a trained reviewer, blinded to treatment groups. Rats were returned to home cages and monitored without treatment for 72 h. Rats were then treated for 7 additional days with i) vehicle, ii) the compound of Example 2 (0.5 mg/kg) or iii) the compound of Example 2 (2.0 mg/kg) via daily i.p. injection; treatment assignments for each rat remained the same with a 20× increase in dose of the compound of Example 2. Animals were then evaluated for locomotor activity in an open field (60 cm square) using automated tracking software (MedAssociates). […]

As to `CN(Cc1ccc(/C=C/C(=O)Nc2ccccc2N)cc1)CC12CC3CC(CC(C3)C1)C2` [Example 2, (E)-3-(4-((((3r,5r,7r)-adamantan-1-ylmethyl)(methyl)amino)methyl)phenyl)-N-(2-aminophenyl)acrylamide], the “effect in locomotor activity (open field)” value is given as “no confounding effect in locomotor activity”.

The values are drawn from US20170349540A1, “HISTONE DEACETYLASE INHIBITORS” (The General Hospital Corporation, priority 2014, published 2017).
